Like-named read-outs stand apart in the source and are kept apart here.
System: PC-3 cells
Assay: Antiproliferative activity, Alamar Blue assay, PC-3 cells
Assay type: cell-based, human
Conditions: for IC50: Homo sapiens, PC-3, PC3 cells, read-out: PC3 antiproliferative activity pIC50 (converted)
How it was run: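 PC-3 cells seeded at 4.5×10^3 cells/ml, left to adhere 24 hr, then exposed to compound for 4 days. Resazurin (Alamar Blue) added for a further 24 hrs at 37° C; fluorescence read at 540/590 nm. Viability as % of untreated control, mean of 3 wells; IC50 by probit analysis, reported as pIC50.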

Row | Compound | IC50 (Alamar Blue) | also measured
1 | CCc1cc2ccc(C(C)(C#N)Cc3cc(N(C)C)nc(C#N)n3)cc2[nH]c1=O (stereo not shown) [Compound 317] | 5.01 µM | –
2 | CCc1cc2ccc(C(C)(C#N)Cc3ccc4c(c3)OC(F)(F)O4)cc2[nH]c1=O (stereo not shown) [Compound 346] | 3.16 µM | –
3 | CCc1cc2ccc([C@](C)(C#N)Cc3cccc(/C=C/S(C)(=O)=O)c3)cc2[nH]c1=O (single isomer, unassigned) [Compound 291] | 0.501 µM | –
4 | Cc1cc2ccc(C(C)(C#N)Cc3cccc(OCC4CCOCC4)c3)cc2[nH]c1=O (stereo not shown) [Compound 261] | 6.31 µM | –
5 | Cc1cc2ccc(C(C)(C#N)Cc3cccc(C=Cc4ccccc4)c3)cc2[nH]c1=O (stereo not shown) [Compound 179] | 7.94 µM | –
6 | CCc1cc2ccc(C(C)(C#N)Cc3cccc(N4CCC(N(C)C)C4)n3)cc2[nH]c1=O (stereo not shown) [Compound 209] | 5.01 µM | –
7 | CCc1cc2ccc(C(C)(C#N)Cc3cc(N(C)C)nc(OC)n3)cc2[nH]c1=O (stereo not shown) [Compound 354] | 6.31 µM | –
8 | CCc1cc2ccc(C(C)(C#N)Cc3nc(N(C)C)cc(N(C)C)n3)cc2[nH]c1=O (stereo not shown) [Compound 205] | 1.26 µM | –
9 | CCc1cc2ccc(C(C)(C#N)Cc3nc(C#N)cc(OC)n3)cc2[nH]c1=O (single isomer, unassigned) [Compound 204] | – | PC3 antiproliferative activity pIC50 (PC3 cells): 6.8
10 | CCc1cc2ccc(C(C)(C#N)Cc3cccc(C#Cc4cncn4C)n3)cc2[nH]c1=O (stereo not shown) [Compound 217] | 6.31 µM | –
11 | CCc1cc2ccc(C(C)(C#N)CN3CCC(c4ccccc4)CC3)cc2[nH]c1=O (stereo not shown) [Compound 375] | 1 µM | –
12 | CCc1cc2ccc(C(C)(C#N)Cc3cccc(CCS(C)(=O)=O)c3)cc2[nH]c1=O (stereo not shown) [Compound 178] | 10 µM | –
13 | Cc1cc2ccc(C(C)(C#N)Cc3cccc(Oc4ccccc4)c3)cc2[nH]c1=O (stereo not shown) [Compound 305] | 3.16 µM | –
14 | CCc1cc2ccc(C(C)(C#N)Cc3ccc(F)c(F)c3)cc2[nH]c1=O (stereo not shown) [Compound 281] | 1.58 µM | –
15 | CCc1cc2ccc(C(C#N)(Cc3ccccc3)c3ccc(C#N)cc3)cc2[nH]c1=O (stereo not shown) [Compound 26] | – | IC50: > 10 µM
16 | CCc1cc2ccc(C(C)(C#N)Cc3cc(F)ccc3F)cc2[nH]c1=O (stereo not shown) [Compound 280] | 0.631 µM | –

Row | Compound | IC50 (Alamar Blue) | also measured
17 | Cc1cc2ccc([C@@](C)(C#N)C3CCc4ccccc43)cc2[nH]c1=O (single isomer, unassigned) [Compound 385] | 10 µM | –
18 | CCc1cc2ccc(C(C)(C#N)CN3CCN(c4ccccn4)CC3)cc2[nH]c1=O (stereo not shown) [Compound 233] | 2 µM | –
19 | Cc1cc2ccc(C(C)(C#N)Cc3cccc(/C=C/CCO)c3)cc2[nH]c1=O (stereo not shown) [Compound 409] | 0.501 µM | –
20 | Cc1nc(-c2ccccc2)sc1CC(C)(C#N)c1ccc2cc(C)c(=O)[nH]c2c1 (stereo not shown) [Compound 235] | 1.58 µM | –
21 | CCc1cc2ccc(C(C#N)(Cc3ccccc3)c3ccccc3)cc2[nH]c1=O (stereo not shown) [Compound 27] | – | IC50: 6.31 µM
22 | CCc1cc2ccc(C(C)(C#N)Cc3cccc(NC)c3)cc2[nH]c1=O (stereo not shown) [Compound 257] | 1.58 µM | –
23 | CCCC(C#N)(Cc1ccccc1)c1ccc2cc(CC)c(=O)[nH]c2c1 (stereo not shown) [Compound 31] | – | IC50: 3.16 µM
24 | Cc1cc2ccc(C(C)(C#N)Cc3cccc(Oc4ccc(F)cc4)c3)cc2[nH]c1=O (stereo not shown) [Compound 192] | 1.58 µM | –
25 | CCc1cc2ccc(C(C)(C#N)Cc3cccc(-c4ccc[nH]4)c3)cc2[nH]c1=O (stereo not shown) [Compound 176] | 5.01 µM | –
26 | CCc1cc2ccc([C@@](C)(C#N)Cc3cccc(C#CCO)c3)cc2[nH]c1=O (single isomer, unassigned) [Compound 295] | 10 µM | –
27 | CCc1cc2ccc(C(C)(C#N)Cc3cccc4[nH]ccc34)cc2[nH]c1=O (stereo not shown) [Compound 379] | 1.26 µM | –
28 | CCc1cc2ccc(C(C)(C#N)Cc3cc(C#N)nc(C)n3)cc2[nH]c1=O (stereo not shown) [Compound 319] | 3.98 µM | –
29 | CCc1cc2ccc(C(C)(C#N)Cc3cc(Cl)nc(C)n3)cc2[nH]c1=O (stereo not shown) [Compound 365] | 0.631 µM | –
30 | CCc1cc2ccc(C(C)(C#N)Cc3cc(Cl)nc(N(C)C)c3)cc2[nH]c1=O (stereo not shown) [Compound 323] | 1 µM | –
31 | Cc1cc2ccc(C(C)(C#N)C3CCCc4ccccc43)cc2[nH]c1=O (stereo not shown) [Compound 404] | 3.98 µM | –

Source: patent US8778966B2, “Quinolinone derivatives as PARP and tank inhibitors” (Janssen Pharmaceutica, NV, priority 2007, dated 2014)
